Source: ChEMBL document CHEMBL3525960, “Role of catechol-O-methyltransferase in the disposition of luteolin in rats” (Drug Metab Dispos, 2011)

How the values were obtained:
[1] = AUC (0 to t) in Sprague-Dawley rat treated with luteolin at 6.5 mg/kg, iv; format: ADME, organism-based; parameters: dose 6.5 mg/kg, route intravenous; settings: plasma
[2] = AUC (0 to infinity) in Sprague-Dawley rat treated with luteolin at 6.5 mg/kg, iv; format: ADME, organism-based; parameters: time infinity, dose 6.5 mg/kg, route intravenous; settings: plasma
[3] = Mean residence time (0 to t) in Sprague-Dawley rat treated with luteolin at 6.5 mg/kg, iv; format: ADME, organism-based; parameters: dose 6.5 mg/kg, route intravenous; settings: in vivo
[4] = Mean residence time (0 to infinity) in Sprague-Dawley rat treated with luteolin at 6.5 mg/kg, iv; format: ADME, organism-based; parameters: dose 6.5 mg/kg, route intravenous; settings: in vivo
[5] = Half life in Sprague-Dawley rat treated with luteolin at 6.5 mg/kg, iv; format: ADME, organism-based; parameters: dose 6.5 mg/kg, route intravenous; settings: in vivo
Rattus norvegicus = experiment: Clearance in Sprague-Dawley rat treated with luteolin at 6.5 mg/kg, iv; format: ADME, organism-based; parameters: dose 6.5 mg/kg, route intravenous; settings: in vivo
[6] = Volume of distribution in Sprague-Dawley rat treated with luteolin at 6.5 mg/kg, iv; format: ADME, organism-based; parameters: dose 6.5 mg/kg, route intravenous; settings: in vivo
[7] = Cmax in Sprague-Dawley rat treated with luteolin at 6.5 mg/kg, iv; format: ADME, organism-based; parameters: dose 6.5 mg/kg, route intravenous; settings: in vivo
[8] = Drug excretion in Sprague-Dawley rat urine treated with luteolin at 6.5 mg/kg, iv after 24 hrs; format: ADME, organism-based; parameters: dose 6.5 mg/kg, route intravenous; settings: read-out: Drug excretion
[9] = Drug excretion in Sprague-Dawley rat urine treated with luteolin at 6.5 mg/kg, iv after 24 hrs co-treated with COMT inhibitor entacapone; format: ADME, organism-based; parameters: dose 6.5 mg/kg, route intravenous; settings: read-out: Drug excretion
[10] = Drug recovery in Sprague-Dawley rat urine assessed as retention time treated with luteolin at 6.5 mg/kg, iv by reverse-phase HPLC method; format: ADME, organism-based; parameters: dose 6.5 mg/kg, route intravenous; settings: in vivo
Liver [11] = experiment: Drug metabolism in Sprague-Dawley rat liver homogenate treated with luteolin at 20 uM after 20 to 60 mins; format: ADME, tissue-based; settings: tissue homogenate
Kidney [12] = experiment: Drug metabolism in Sprague-Dawley rat kidney homogenate treated with luteolin at 20 uM after 20 to 60 mins; format: ADME, tissue-based; settings: tissue homogenate
Lung [13] = experiment: Drug metabolism in Sprague-Dawley rat lung homogenate treated with luteolin at 20 uM after 20 to 60 mins; format: ADME, tissue-based; settings: tissue homogenate
Small intestine [14] = experiment: Drug metabolism in Sprague-Dawley rat small intestine homogenate treated with luteolin at 20 uM after 20 to 60 mins; format: ADME, tissue-based; settings: tissue homogenate
[15] = Drug metabolism in Sprague-Dawley rat erythrocytes homogenate treated with luteolin at 20 uM after 20 to 60 mins; format: ADME, cell-based; settings: erythrocyte
Liver [16] = experiment: Drug metabolism in Sprague-Dawley rat liver homogenate treated with luteolin at 20 uM after 20 to 60 mins in presence of COMT inhibitor entacapone; format: ADME, tissue-based; settings: tissue homogenate
Kidney [17] = experiment: Drug metabolism in Sprague-Dawley rat kidney homogenate treated with luteolin at 20 uM after 20 to 60 mins in presence of COMT inhibitor entacapone; format: ADME, tissue-based; settings: tissue homogenate
Lung [18] = experiment: Drug metabolism in Sprague-Dawley rat lung homogenate treated with luteolin at 20 uM after 20 to 60 mins in presence of COMT inhibitor entacapone; format: ADME, tissue-based; settings: tissue homogenate
Small intestine [19] = experiment: Drug metabolism in Sprague-Dawley rat small intestine homogenate treated with luteolin at 20 uM after 20 to 60 mins in presence of COMT inhibitor entacapone; format: ADME, tissue-based; settings: tissue homogenate
[20] = Drug metabolism in Sprague-Dawley rat erythrocytes homogenate treated with luteolin at 20 uM after 20 to 60 mins in presence of COMT inhibitor entacapone; format: ADME, cell-based; settings: erythrocyte
Liver microsome = experiment: Stability in Sprague-Dawley rat liver microsomes at 10 uM after 10 to 30 mins by HPLC analysis; format: ADME

Q: For `COc1ccc(-c2cc(=O)c3c(O)cc(O)cc3o2)cc1O` [DIOSMETIN], which AUC(0-t) [1] is on record?
A: The AUC(0-t) was 427 ng·h/mL.

Q: What about the AUC(0-inf) [2] of the same compound?
A: The AUC(0-inf) was 466 ng·h/mL.

Q: What about the MRT last [3] of the same compound?
A: Its MRT last is 35.8 min.

Q: What about the MRT inf [4] of the same compound?
A: The MRT inf was 46 min.

Q: And the half-life [5]?
A: Its half-life is 30.8 min.

Q: And the clearance (Rattus norvegicus)?
A: The clearance was 238 mL/min/kg.

Q: What about the Vd [6] of the same compound?
A: Its Vd is 10.3 L/kg.

Q: And the Cmax [7]?
A: The Cmax was 560 ng/mL.

Q: What about the dose excreted at 24 h [8] of the same compound?
A: The dose excreted at 24 h was 1.22%.

Q: What about the dose excreted at 24 h [9] of the same compound?
A: Its dose excreted at 24 h is 0.254%.

Q: What about the Retention_time [10] of the same compound?
A: Its Retention_time is 30.85 min.

Q: And the Drug metabolism (Liver [11])?
A: Its Drug metabolism is “metabolite_detected”.

Q: What about the Drug metabolism (Kidney [12]) of the same compound?
A: The Drug metabolism was “metabolite_detected”.

Q: And the Drug metabolism (Lung [13])?
A: Its Drug metabolism is “metabolite_detected”.

Q: And the Drug metabolism (Small intestine [14])?
A: The Drug metabolism was “metabolite_detected”.

Q: What about the Drug metabolism [15] of the same compound?
A: The Drug metabolism was “metabolite_detected”.

Q: What about the Drug metabolism (Liver [16]) of the same compound?
A: Its Drug metabolism is “metabolite_not_detected”.

Q: What about the Drug metabolism (Kidney [17]) of the same compound?
A: Its Drug metabolism is “metabolite_not_detected”.

Q: And the Drug metabolism (Lung [18])?
A: The Drug metabolism was “metabolite_not_detected”.

Q: What about the Drug metabolism (Small intestine [19]) of the same compound?
A: The Drug metabolism was “metabolite_not_detected”.

Q: And the Drug metabolism [20]?
A: Its Drug metabolism is “metabolite_not_detected”.

Q: What about the Stability (Liver microsome) of the same compound?
A: Its Stability is “Unstable”.
